{
  "source": "ChEMBL document CHEMBL1687910",
  "about": "“Isoindolinone inhibitors of the murine double minute 2 (MDM2)-p53 protein-protein interaction: structure-activity studies leading to improved potency” (J Med Chem, 2011)",
  "key": {"[1]": {"target": "T1, E3 ubiquitin-protein ligase Mdm2 (Homo sapiens, UniProt Q00987)", "experiment": "Inhibition of Mdm2 -p53 protein interaction by ELISA"}, "[2]": {"target": "T1, E3 ubiquitin-protein ligase Mdm2", "experiment": "Inhibition of Mdm2 -p53 protein interaction in human […] cells assessed as induction of p53 protein at 1 to 20 uM after 6 hrs by Western blot analysis", "assay_type": "cell-based"}, "[3]": {"target": "T1, E3 ubiquitin-protein ligase Mdm2", "experiment": "Inhibition of Mdm2 -p53 protein interaction in human […] cells assessed as induction of p21 protein at 1 to 20 uM after 6 hrs by Western blot analysis", "assay_type": "cell-based"}, "[4]": {"target": "T1, E3 ubiquitin-protein ligase Mdm2", "experiment": "Inhibition of Mdm2 -p53 protein interaction in human […] cells assessed as induction of MDM2 protein at 1 to 20 uM after 6 hrs by Western blot analysis", "assay_type": "cell-based"}, "[5]": {"target": "T1, E3 ubiquitin-protein ligase Mdm2", "experiment": "Inhibition of Mdm2 -p53 protein interaction in human […] cells assessed as induction of p53 protein at 10 uM after 6 hrs by Western blot analysis", "assay_type": "cell-based"}, "[6]": {"target": "T1, E3 ubiquitin-protein ligase Mdm2", "experiment": "Inhibition of Mdm2 -p53 protein interaction in human […] cells assessed as induction of p21 protein at 10 uM after 6 hrs by Western blot analysis", "assay_type": "cell-based"}, "SJSA-1": {"tested_on": "SJSA-1", "experiment": "Cytotoxicity against human SJSA1 cells after 72 hrs by sulforhodamine B assay", "assay_type": "functional", "conditions": "SJSA-1, 72 h"}, "[7]": {"experiment": "Cytotoxicity against human LS cells after 72 hrs by sulforhodamine B assay", "assay_type": "functional"}, "[8]": {"experiment": "Cytotoxicity against human NGP cells after 72 hrs by sulforhodamine B assay", "assay_type": "functional"}, "HCT-116 [9]": {"tested_on": "HCT-116", "experiment": "Cytotoxicity against human p53 expressing HCT116 cells after 72 hrs by sulforhodamine B assay", "assay_type": "functional", "conditions": "HCT-116, 72 h"}, "HCT-116 [10]": {"tested_on": "HCT-116", "experiment": "Cytotoxicity against p53 deficient human HCT116 cells after 72 hrs by sulforhodamine B assay", "assay_type": "functional", "conditions": "HCT-116, 72 h"}, "SAOS-2": {"tested_on": "SAOS-2", "experiment": "Cytotoxicity against human Saos2 cells after 72 hrs by sulforhodamine B assay", "assay_type": "functional", "conditions": "SAOS-2, 72 h"}},
  "note": "Activity calls are given as the source filed them. The calls are words filed in the database; no cut-off is given here.",
  "data": [
    {"compound": "CCCN1C(=O)c2ccccc2C1(O)c1ccc(Cl)cc1", "note": "(stereo unspecified)", "values": [
      {"measurement": "IC50", "setting": "[1]", "value": 69, "unit": "µM"}
    ]},
    {"compound": "Cc1ccc(CN2C(=O)c3ccccc3C2(O)c2ccc(Cl)cc2)cc1", "note": "(stereo unspecified)", "values": [
      {"measurement": "IC50", "setting": "[1]", "value": 15, "unit": "µM"}
    ]},
    {"compound": "N#Cc1ccc(CN2C(=O)c3ccccc3C2(O)c2ccc(Cl)cc2)cc1", "note": "(stereo unspecified)", "values": [
      {"measurement": "IC50", "setting": "[1]", "value": 6, "unit": "µM"}
    ]},
    {"compound": "O=C1c2ccccc2C(O)(c2ccc(Br)cc2)N1Cc1ccc([N+](=O)[O-])cc1", "note": "(stereo unspecified)", "values": [
      {"measurement": "IC50", "setting": "[1]", "value": 3.1, "unit": "µM"}
    ]},
    {"compound": "O=C1c2ccccc2C(O)(c2ccc(Cl)cc2)N1CCc1ccccc1", "note": "(stereo unspecified)", "values": [
      {"measurement": "IC50", "setting": "[1]", "value": 7.2, "unit": "µM"}
    ]},
    {"compound": "O=C1c2ccccc2C(O)(c2ccc(Cl)cc2)N1CCc1ccc([N+](=O)[O-])cc1", "note": "(stereo unspecified)", "values": [
      {"measurement": "IC50", "setting": "[1]", "value": 6.2, "unit": "µM"}
    ]},
    {"compound": "Nc1ccc(CCN2C(=O)c3ccccc3C2(O)c2ccc(Cl)cc2)cc1", "note": "(stereo unspecified)", "values": [
      {"measurement": "IC50", "setting": "[1]", "value": 6.2, "unit": "µM"}
    ]},
    {"compound": "O=C1c2ccccc2C(O)(c2ccc(Cl)cc2)N1Cc1cccc2ccccc12", "note": "(stereo unspecified)", "values": [
      {"measurement": "IC50", "setting": "[1]", "value": 47, "unit": "µM"}
    ]},
    {"compound": "O=C(c1ccccc1)c1ccc(CN2C(=O)c3ccccc3C2(O)c2ccc(Cl)cc2)cc1", "note": "(stereo unspecified)", "values": [
      {"measurement": "IC50", "setting": "[1]", "value": "> 20", "unit": "µM"}
    ]},
    {"compound": "O=C1c2ccccc2C(O[C@H]2CC[C@@H](O)C2)(c2ccc(Cl)cc2)N1Cc1ccc([N+](=O)[O-])cc1", "note": "(mixture of isomers)", "values": [
      {"measurement": "IC50", "setting": "[1]", "value": 0.4, "unit": "µM"}
    ]},
    {"compound": "O=C1c2ccccc2C(O[C@H]2C=C[C@@H](O)C2)(c2ccc(Cl)cc2)N1Cc1ccccc1", "note": "(mixture of isomers)", "values": [
      {"measurement": "IC50", "setting": "[1]", "value": 4.7, "unit": "µM"}
    ]},
    {"compound": "N#Cc1ccc(CN2C(=O)c3ccccc3C2(OCCCCO)c2ccc(Cl)cc2)cc1", "note": "(racemic)", "values": [
      {"measurement": "IC50", "setting": "[1]", "value": 3.5, "unit": "µM"}
    ]},
    {"compound": "O=C1c2ccccc2C(O[C@H]2CCC[C@H](O)CCC2)(c2ccc(Cl)cc2)N1Cc1ccc([N+](=O)[O-])cc1", "note": "(mixture of isomers)", "values": [
      {"measurement": "IC50", "setting": "[1]", "value": 0.38, "unit": "µM"},
      {"measurement": "inhibition", "setting": "[2]", "value": "Dose-dependent effect"},
      {"measurement": "inhibition", "setting": "[3]", "value": "Dose-dependent effect"},
      {"measurement": "inhibition", "setting": "[4]", "value": "Dose-dependent effect"}
    ]},
    {"compound": "O=C1c2ccccc2C(OCC2(CO)CC2)(c2ccc(Cl)cc2)N1Cc1ccncc1", "note": "(racemic)", "values": [
      {"measurement": "IC50", "setting": "[1]", "value": 252, "unit": "µM"}
    ]},
    {"compound": "CC(C)(CO)COC1(c2ccc(Cl)cc2)c2ccccc2C(=O)N1Cc1ccc([N+](=O)[O-])cc1", "note": "(racemic)", "values": [
      {"measurement": "inhibition", "setting": "[2]", "value": "Dose-dependent effect"},
      {"measurement": "inhibition", "setting": "[3]", "value": "Dose-dependent effect"},
      {"measurement": "inhibition", "setting": "[4]", "value": "Dose-dependent effect"}
    ]},
    {"compound": "O=C1c2ccccc2C(OC[C@H]2CC[C@H](CO)CC2)(c2ccc(Cl)cc2)N1Cc1ccc([N+](=O)[O-])cc1", "note": "(mixture of isomers)", "values": [
      {"measurement": "inhibition", "setting": "[5]", "value": "Active"},
      {"measurement": "inhibition", "setting": "[6]", "value": "Active"},
      {"measurement": "inhibition", "setting": "[2]", "value": "Dose-dependent effect"},
      {"measurement": "inhibition", "setting": "[3]", "value": "Dose-dependent effect"},
      {"measurement": "inhibition", "setting": "[4]", "value": "Dose-dependent effect"}
    ]},
    {"compound": "COc1ccc(C2=N[C@@H](c3ccc(Cl)cc3)[C@@H](c3ccc(Cl)cc3)N2C(=O)N2CCNC(=O)C2)c(OC(C)C)c1", "note": "[NUTLIN-3]", "values": [
      {"measurement": "GI50", "setting": "SJSA-1", "value": 2.6, "unit": "µM"},
      {"measurement": "GI50", "setting": "[7]", "value": 2.3, "unit": "µM"},
      {"measurement": "GI50", "setting": "[8]", "value": 2.1, "unit": "µM"},
      {"measurement": "GI50", "setting": "HCT-116 [9]", "value": 13, "unit": "µM"},
      {"measurement": "GI50", "setting": "HCT-116 [10]", "value": 34, "unit": "µM"},
      {"measurement": "GI50", "setting": "SAOS-2", "value": 18, "unit": "µM"}
    ]}
  ]
}
